From PubChem BioAssay AID504758 (National Center for Advancing Translational Sciences (NCATS), 2011)

Tested on: Caco-2 monolayer permeability, A-to-B, LC-MS/MS
Test: Inhibitors of Cruzain: Caco-2 Permeability Profiling Assay
Conditions: hits give high values
Source text: Chagas Disease is a neglected tropical disease that affects over 16 million people in Latin America. The cysteine protease cruzain is essential for the survival Trypanosoma cruzi, the parasitic agent responsible for Chagas disease. Potential intervention for T. cruzi includes the inhibition of cruzain. This bioassay will summarize the ongoing development of small molecule cruzain inhbitiors. Currently, a screen of ~200k compounds and through extensive follow-up work a probe was identified. To further characterize the probe, it was tested in in vitro ADME assays. This permeability assay predicts the in vivo absorption of the lead across the intestinal lining by using a Caco-2 cell line and measuring the lead's rate of transport into the cytosol. […] NIH Chemical Genomics Center [NCGC] NIH Molecular Libraries Probe Production Centers Network [MLPCN] MLSCN Grant: DA024891-01 PI Name: Dr. Brian Shoichet; University of California, San Francisco
1. Buffer Preparation: Prepare 1M HEPES: add 23.83g HEPES to 100ml of 0.85% NaCl Prepare HBSS+ buffer: add 12.8ml of 1M HEPES in 0.85% NaCl to 500ml HBSS buffer. 2. Take out the compounds from -80 degrees C, ultrasonicate or pre-warm for a few minutes to thaw the compounds. 3. […] The T0, LY and T90, LY plates are read by FlexStation 3 at excitation of 485 nm and emission of 535 nm to determine LY permeability. […]

Cc1ccc(OCCn2c(CCNC(=O)C3CCCCC3)nc3ccccc32)cc1
apparent permeability Papp: 4.1 10^-6 cm/s
